Among the data in patent US20240150287A1, “N-(BENZOYL)-PHENYLALANINE COMPOUND, PHARMACEUTICAL COMPOSITION CONTAINING SAME, AND USE THEREOF” (Hangzhou Apeloa Medicine Research Institute Co., Ltd., priority 2021, published 2024) are IC50 values, retold here.

Sequence of recombinant human integrin α4β7 (binding to recombinant human MAdCAM-1) (P13612 34-970): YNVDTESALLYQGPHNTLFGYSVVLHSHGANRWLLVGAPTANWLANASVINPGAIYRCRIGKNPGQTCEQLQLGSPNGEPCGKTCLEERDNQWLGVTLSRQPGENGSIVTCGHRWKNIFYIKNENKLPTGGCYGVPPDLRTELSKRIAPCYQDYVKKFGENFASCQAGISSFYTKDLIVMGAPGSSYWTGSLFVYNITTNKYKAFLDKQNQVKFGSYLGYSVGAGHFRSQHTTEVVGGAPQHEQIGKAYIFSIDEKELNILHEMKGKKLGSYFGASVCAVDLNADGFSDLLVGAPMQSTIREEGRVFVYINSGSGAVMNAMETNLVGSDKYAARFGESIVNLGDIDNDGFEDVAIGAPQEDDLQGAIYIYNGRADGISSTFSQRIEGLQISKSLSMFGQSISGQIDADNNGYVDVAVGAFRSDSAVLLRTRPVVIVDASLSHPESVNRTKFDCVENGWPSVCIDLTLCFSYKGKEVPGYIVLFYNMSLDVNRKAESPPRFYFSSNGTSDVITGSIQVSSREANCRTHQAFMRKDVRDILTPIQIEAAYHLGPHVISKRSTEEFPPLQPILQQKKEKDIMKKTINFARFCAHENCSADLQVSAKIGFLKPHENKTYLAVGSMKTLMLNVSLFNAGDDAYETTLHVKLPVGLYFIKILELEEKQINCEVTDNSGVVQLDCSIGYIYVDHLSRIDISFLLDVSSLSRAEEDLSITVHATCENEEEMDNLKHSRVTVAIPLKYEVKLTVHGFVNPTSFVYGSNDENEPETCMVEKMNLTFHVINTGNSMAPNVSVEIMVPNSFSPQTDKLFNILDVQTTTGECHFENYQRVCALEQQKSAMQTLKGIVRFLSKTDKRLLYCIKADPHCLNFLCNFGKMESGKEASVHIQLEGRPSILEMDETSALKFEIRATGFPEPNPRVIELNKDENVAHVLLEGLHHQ
Sequence of recombinant human integrin α4β7 (binding to recombinant human MAdCAM-1) (P26010 20-723): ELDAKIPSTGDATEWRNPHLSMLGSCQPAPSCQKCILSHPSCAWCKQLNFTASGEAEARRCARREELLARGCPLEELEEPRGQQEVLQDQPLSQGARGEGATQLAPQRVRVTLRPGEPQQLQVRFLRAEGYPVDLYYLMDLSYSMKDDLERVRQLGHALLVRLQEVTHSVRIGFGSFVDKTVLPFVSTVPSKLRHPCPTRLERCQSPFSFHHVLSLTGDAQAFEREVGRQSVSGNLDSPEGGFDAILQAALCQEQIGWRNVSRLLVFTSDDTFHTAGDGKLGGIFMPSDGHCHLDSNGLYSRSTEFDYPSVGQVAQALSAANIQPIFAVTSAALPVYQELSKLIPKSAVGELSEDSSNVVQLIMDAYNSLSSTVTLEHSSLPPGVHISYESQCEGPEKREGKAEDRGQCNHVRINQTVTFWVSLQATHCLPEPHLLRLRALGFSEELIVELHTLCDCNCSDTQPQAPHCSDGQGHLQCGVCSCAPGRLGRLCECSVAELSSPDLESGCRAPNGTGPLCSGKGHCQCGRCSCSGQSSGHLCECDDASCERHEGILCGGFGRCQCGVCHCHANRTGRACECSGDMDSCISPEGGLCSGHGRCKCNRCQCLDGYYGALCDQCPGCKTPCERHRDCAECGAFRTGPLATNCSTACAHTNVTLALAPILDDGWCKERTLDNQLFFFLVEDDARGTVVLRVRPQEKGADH

The target in this assay is recombinant human integrin α4β7 (binding to recombinant human MAdCAM-1) (Homo sapiens (Human), UniProt P13612+P26010). The assay is described as follows: MAdCAM-1/α4β7 integrin binding inhibition activity evaluation test (α4β7-MAdCAM-1 ELISA). The following applies: plate-coated recombinant human MAdCAM-1, recombinant human α4β7, 2 h room temperature, free form of compound. As to the method:
EXAMPLE: MADCAM-1/α4β7 INTEGRIN BINDING INHIBITION ACTIVITY EVALUATION TEST (α4β7-MADCAM-1 ELISA)
Coat the 96-well microplate (Costar) with 50 μL of recombinant human MAdCAM-1 (R&D Systems) solution per well, and incubate overnight (12-18 hours) at 4° C. Wash three times with 150 μL of TBS buffer per well. Block plate with 150 μL per well with blocking buffer for 1 h at 37° C. Wash three times with 150 μL of TBS buffer per well. Dilute the recombinant human integrin α4β7 (R&D Systems) with TBS buffer containing 0.1% bovine serum albumin (BSA), then add to the 96 well plate with 50 μL per well. Add 1 μL of test compound or DMSO, cover, incubate at room temperature for 2 h, wash three times with 150 μL of TBS buffer per well. Dilute the anti-β7 antibody (R&D Systems) with 0.1% BSA TBS buffer, then add to the 96 well plate with 50 μL per well, cover, incubate at room temperature for 1 h, wash three times with 150 μL of TBS buffer per well. Add 50 μL of streptavidin-HRP (R&D Systems) per well, incubate at room temperature for 20 min, wash three times with 150 μL of TBS buffer per well. Add 50 μL of TMB substrate solution (Sigma) per well, incubate at room temperature for 5-30 min, and add 25 μL of stop solution per well to stop the reaction. Finally, measure absorbance at 450 nm with microplate reader (SpectraMax 340PC. Molecular Devices). Repeat the test to find the binding rate of cells at each concentration when the absorbance of the well without the test substance is used as 100%, and calculate the concentration IC50 that causes 50% binding inhibition and summarize the results in Table 1.
It should be stated that, as a test compound, the free form of the compound synthesized in the above examples is used.
On the technique in general: ELISA stands for enzyme-linked immunosorbent assay.
The term IC50 denotes the point on the concentration scale where inhibition reaches its midpoint. Consider `O=C(N[C@@H](Cc1ccc(N2C(=O)C3(CC3)c3cc(F)c(F)cc32)cc1)C(=O)O)c1c(F)cccc1Cl` [Example 1, (S)-2-(2-chloro-6-fluorobenzamide)-3-(4-(5′,6′-difluoro-2′-oxospirino[cyclopropane-1,3′-indoline]-1′-yl)phenyl)propionic acid], for which the IC50 is 14.3 nM. The value for `O=C(N[C@@H](Cc1ccc(N2C(=O)C3(CC3)c3cccc(Cl)c32)cc1)C(=O)O)c1c(F)cccc1Cl` [Example 2, (S)-3-(4-(7′-chloro-2′-oxospiro[cyclopropane-1,3′-indoline]-1′-yl)phenyl)-2-(2-chloro-6-fluorobenzamide) propionic acid] was 2.57 nM; that for `COc1cccc2c1N(c1ccc(C[C@H](NC(=O)c3c(Cl)cccc3Cl)C(=O)O)cc1)C(=O)C21CC1` [Example 3, (S)-2-(2,6-dichlorobenzamido)-3-(4-(7′-methoxy-2′-oxospiro[cyclopropane-1,3′-indoline]-1′-yl)phenyl)propionic acid] was 5.48 nM. The value for `O=C(N[C@@H](Cc1ccc(N2C(=O)C3(CC3)c3ccc(F)cc32)cc1)C(=O)O)c1c(Cl)cccc1Cl` [Example 4, (S)-2-(2,6-dichlorobenzamido)-3-(4-(6′-fluoro-2′-oxospiro[cyclopropane-1,3′-indoline]-1′-yl)phenyl)propionic acid] was 2.54 nM. The figure for `O=C(N[C@@H](Cc1ccc(N2C(=O)C3(CC3)c3cccc(F)c32)cc1)C(=O)O)c1c(Cl)cccc1Cl` [Example 5, (S)-2-(2,6-dichlorobenzoylamino)-3-(4-(7′-fluoro-2′-oxospiro[cyclopropane-1,3′-indoline]-1′-yl)phenyl)propionic acid] is 2.87 nM; for `O=C(N[C@@H](Cc1ccc(N2C(=O)C3(CC3)c3ccccc32)cc1)C(=O)O)c1c(Cl)cccc1Cl` [Example 6, (S)-2-(2,6-dichlorobenzamido)-3-(4-(2′-oxospiro[cyclopropane-1,3′-indoline]-1′-yl)phenyl)propionic acid] it is 5.81 nM. With `O=C(N[C@@H](Cc1ccc(N2C(=O)C3(CCOCC3)c3cccc(Cl)c32)cc1)C(=O)O)c1c(F)cccc1Cl` [Example 7, (S)-3-(4-(7-chloro-2-oxo-2′,3′,5′,6′-tetrahydrospiro[indoline-3,4′-pyran]-1-yl)phenyl)-2-(2-chloro-6-fluorobenzamide)propionic acid], the half-maximal inhibitory concentration (IC50) came out at 16.1 nM. The figure for `O=C(N[C@@H](Cc1ccc(N2C(=O)C3(CC3)c3cc(F)c(Cl)cc32)cc1)C(=O)O)c1c(F)cccc1Cl` [Example 8, (S)-3-(4-(6′-chloro-5′-fluoro-2′-oxospiro[cyclopropane-1,3′-indoline]-1′-yl)phenyl)-2-(2-chloro-6-fluorobenzamide)propionic acid] is 17.6 nM; for `O=C(N[C@@H](Cc1ccc(N2C(=O)C3(CC3)c3cc(F)ccc32)cc1)C(=O)O)c1c(F)cccc1Cl` [Example 9, (S)-2-(2-chloro-6-fluorobenzamide)-3-(4-(5′-fluoro-2′-oxospiro[cyclopropane-1,3′-indoline]-1′-yl)phenyl)propionic acid] it is 95.5 nM; for `CC1(C)C(=O)N(c2ccc(C[C@H](NC(=O)c3c(F)cccc3Cl)C(=O)O)cc2)c2c(Cl)cccc21` [Example 10, (S)-3-(4-(7-chloro-3,3-dimethyl-2-oxoindoline-1-yl)phenyl)-2-(2-chloro-6-fluorobenzamide)propionic acid] it is 38.8 nM. The figure for `CN(C)c1cc2c(cc1F)C1(CC1)C(=O)N2c1ccc(C[C@H](NC(=O)c2c(F)cccc2Cl)C(=O)O)cc1` [Example 11, (S)-2-(2-chloro-6-fluorobenzamide)-3-(4-(6′-(dimethylamino)-5′-fluoro-2′-oxospiro[cyclopropane-1,3′-indoline]-1′-yl)phenyl)propionic acid] is 3.05 nM. The value for `CN(C)c1ccc2c(c1)C1(CC1)C(=O)N2c1ccc(C[C@H](NC(=O)c2c(F)cccc2Cl)C(=O)O)cc1` [Example 12, (S)-2-(2-chloro-6-fluorobenzamide)-3-(4-(5′-(dimethylamino)-2′-oxospiro[cyclopropane-1,3′-indoline]-1′-yl)phenyl)propionic acid] was 4.15 nM; that for `O=C(N[C@@H](Cc1ccc(N2C(=O)C3(CC3)c3ccc(F)cc32)cc1)C(=O)O)c1c(F)cccc1Cl` [Example 13] was 8.02 nM; that for `O=C(N[C@@H](Cc1ccc(N2C(=O)C3(CC3)c3cccc(F)c32)cc1)C(=O)O)c1c(F)cccc1Cl` [Example 14, (S)-2-(2-chloro-6-fluorobenzamide)-3-(4-(7-fluoro-2′-oxospiro[cyclopropane-1,3′-indoline]-1′-yl)phenyl)propionic acid] was 6.21 nM. With `O=C(N[C@@H](Cc1ccc(N2C(=O)C3(CC3)c3ccc(F)c(F)c32)cc1)C(=O)O)c1c(F)cccc1Cl` [Example 15, (S)-2-(2-chloro-6-fluorobenzamide)-3-(4-(6′,7′-difluoro-2′-oxospirino[cyclopropane-1,3′-indoline]-1′-yl)phenyl)propionic acid], the IC50 turned out to be 5.62 nM. The figure for `O=C(N[C@@H](Cc1ccc(N2C(=O)C3(CC3)c3cccnc32)cc1)C(=O)O)c1c(Cl)cccc1Cl` [Example 16, (S)-2-(2,6-dichlorobenzamido)-3-(4-(2′-oxospiro[cyclopropane-1,3′-pyrrolo[2,3-b]pyridine]-1′(2′H)-yl)phenyl)propionic acid] is 0.75 nM; for `O=C(N[C@@H](Cc1ccc(N2C(=O)C3(CC3)c3cccc(Cl)c32)cc1)C(=O)O)c1c(Cl)cc(Cl)cc1Cl` [Example 17, (S)-3-(4-(7′-chloro-2′-oxospiro[cyclopropane-1,3′-indoline]-1′-yl)phenyl)-2-(2,4,6-trichlorobenzoylamino)propionic acid] it is 64.2 nM.

Turning to `O=C(N[C@@H](Cc1ccc(N2C(=O)C3(CC3)c3cccc(Cl)c32)cc1)C(=O)O)c1c(Cl)cc(N2CCOCC2)cc1Cl` [Example 19, (S)-3-(4-(7′-chloro-2′-oxospiro[cyclopropane-1,3′-indoline]-1′-yl)phenyl)-2-(2,6-dichloro-4-morpholinobenzoylamino)propionic acid], the 50% inhibitory concentration (IC50) stood at 11.4 nM. The figure for `O=C(N[C@@H](Cc1ccc(N2C(=O)C3(CC3)c3cccc(Cl)c32)cc1)C(=O)O)c1c(Cl)cc(N2CC3CC2CO3)cc1Cl` (some centres unmarked) [Example 20] is 4.15 nM; for `O=C(N[C@@H](Cc1ccc(N2C(=O)C3(CC3)c3cccc(Cl)c32)cc1)C(=O)O)c1c(Cl)cc(N2CCC(N3CCOCC3)CC2)cc1Cl` [Example 21, (S)-3-(4-(7′-chloro-2′-oxospiro[cyclopropane-1,3′-indoline]-1′-yl)phenyl)-2-(2,6-dichloro-4-(4-morpholinopiperidin-1-yl)benzoylamino)propionic acid] it is 23.7 nM. For `Cn1c(=O)n(-c2ccc(C[C@H](NC(=O)c3c(F)cccc3Cl)C(=O)O)cc2)c2c(Cl)cccc21` [Example 22, (S)-3-(4-(7-chloro-3-methyl-2-oxo-2,3-dihydro-1H-benzo-1H-imidazol-1-yl)phenyl)-2-(2-chloro-6-fluorobenzamide)propionic acid], the IC50 is 1.19 nM. The figure for `O=C(N[C@@H](Cc1ccc(-n2c(=O)n(C3CC3)c3cc(Cl)ccc32)cc1)C(=O)O)c1c(Cl)cccc1Cl` [Example 23, (S)-3-(4-(5-chloro-3-cyclopropyl-2-oxo-2,3-dihydro-1H-benzo[d]imidazol-1-yl)phenyl)-2-(2,6-dichlorobenzamido)propionic acid] is 143 nM; for `O=C(N[C@@H](Cc1ccc(-n2c(=O)n(C3CC3)c3ccc(Cl)cc32)cc1)C(=O)O)c1c(Cl)cccc1Cl` [Example 24, (S)-3-(4-(6-chloro-3-cyclopropyl-2-oxo-2,3-dihydro-1H-benzo[d]imidazol-1-yl)phenyl)-2-(2,6-dichlorobenzamido)propionic acid] it is 5.67 nM; for `O=C(N[C@@H](Cc1ccc(-n2c(=O)n(C3CC3)c3cccc(Cl)c32)cc1)C(=O)O)c1c(Cl)cccc1Cl` [Example 25, (S)-3-(4-(7-chloro-3-cyclopropyl-2-oxo-2,3-dihydro-1H-benzo[d]imidazol-1-yl)phenyl)-2-(2,6-dichlorobenzamido)propionic acid] it is 7.5 nM.

Take `Cn1c(=S)n(-c2ccc(C[C@H](NC(=O)c3c(F)cccc3Cl)C(=O)O)cc2)c2c(Cl)cccc21` [Example 26, (S)-3-(4-(7-chloro-3-methyl-2-thio-2,3-dihydro-1H-benzo[d]imidazol-1-yl)phenyl)-2-(2-chloro-6-fluorobenzoylamino)propionic acid]: the concentration for half-maximal inhibition (IC50) was found to be 160 nM. The value for `O=C(N[C@@H](Cc1ccc(-n2c(=O)n(C3CC3)c3cccc(F)c32)cc1)C(=O)O)c1c(F)cccc1Cl` [Example 27, (S)-2-(2-chloro-6-fluorobenzoylamino)-3-(4-(3-cyclopropyl-7-fluoro-2-oxo-2,3-dihydro-1H-benzo [d]imidazol-1-yl)phenyl)propionic acid] was 8.81 nM.
